# Experimental data: US20230330111A1, “ACTIVE AGENT COMBINATION FOR TREATMENT OF CANCER” (HELMHOLTZ ZENTRUM MÜNCHEN - DEUTSCHES FORSCHUNGSZENTRUM FÜR …, priority 2020, published 2023)
# “Also recorded” adds a separate entry of the source.
# Key:
# HCT116 cells [1] = test: High-throughput phenotypic screen with NEN co-treatment (FDA-approved and GPCR libraries); assay type: cell-based; conditions: NEN 1.2 μM, 24 h, FDA-approved drug library and GPCR library
# Experimental: Plate and liquid handling was performed using a HTS platform system composed of a Sciclone G3 Liquid Handler from PerkinElmer (Waltham, MA, USA) with a Mitsubishi robotic arm (Mitsubishi Electric, RV-3511), a MultiFloTM Dispenser (Biotek Instruments, Bad Friedrichshall, Germany) as well as a CytomatTM Incubator (Thermo Fisher Scientific, Waltham, MA, USA). Cell seeding and assays were performed in black 384-well plates (Greiner bio one 384-well μCLEAR®, BLACK, 781091). The plates were coated with poly-D-lysine (Sigma-Aldrich, St. Louis, MA, USA) for 1 h at room temperature to facilitate a better cell adherence. Cells were seeded in 384-well microplates with a cell number of 12,000 cells/well. The signals of the MultiTox-Fluor assays were detected on the EnVision® Multilabel Reader (PerkinElmer, Waltham, MA, USA). The Prestwick Chemical library contains 1,280 small molecule compounds, which are 100% approved drugs (Food and Drug Administration (FDA), European Medicines Agency (EMA) and other agencies). The purity of the compounds was >90% as reported by the provider of the compounds. The GPCR compound library was purchased from MedChem Express (Cat. No.: HY-[…]). The Z' factor was calculated as described by Zhang and colleagues (Zhang, Chung et al., 1999). For screening of the FDA and GPCR small molecule libraries, HCT116 cells were washed with PBS, trypsinized, and resuspended in cell culture medium. The cell suspension (12,000 cells in 50 μl per well) was dispensed into poly-D-lysine pre-coated 384-well plates (Greiner bio one 384-well pCLEAR®, BLACK, 781091) and incubated at 37° C. with 5% CO2. 24 h after seeding, either 5 μl of NEN (negative control), NEN+Nutlin-3a (positive control), or DMSO alone (solvent control) dissolved in cell culture media were dispensed to the assay plate (NEN, final concentration: 1.2 μM; Nutlin-3a, final concentration: 25 μM). In addition, the same day cells were treated either with compound (1 mM stock solution) dissolved in 100% DMSO or DMSO alone. 0.5 μl of compounds/DMSO were transferred to 55 μl cell culture medium per well to keep the final DMSO volume concentration below 1.0%. The cells were then incubated (37° C.; 5% CO2) for 24 h prior to adding 50 μl MultiTox-Fluor Multiplex Cytotoxicity Assay reagent (Promega). Live-cell fluorescence (excitation=400 nm; emission=505 nm) and dead-cell fluorescence (excitation=485 nm; emission=520 nm) were recorded with an EnVision multilabel reader (PerkinElmer, Waltham, USA). The ratio for live/dead was calculated and normalized to the negative/vehicle control. For hit selection a threshold of lower than 3 standard deviations from the median of the negative/vehicle population was set.
# [2] = tested on: preclinical tumor rodent models; conditions: single drug; background art; cited from earlier work
# ATF4, CHOP and Gadd34 = test: qPCR of ISR genes; assay type: cell-based; conditions: HCT116; for ISR marker gene expression (ATF4, CHOP, Gadd34 mRNA): NEN 1.2 μM, Domp and TCAs 30 μM, Clomi 20 μM
# From the text: RNA was isolated using the Qiagen […] kit following the manufacturers protocol and reverse transcribed using the Quantitect reverse transcription kit (Qiagen). cDNA was amplified using the PowerUp SYBRGreen mastermix (LifeTechnologies), the following primers and an Applied Biosystems Quantstudio 6 cycler. RNA expression data were normalized to the level of beta-actin expression.
# BxPC3 cells = test: Cell death / ratio of toxicity and viability in BxPC3 (monolayer); assay type: cell-based; conditions: for cell death / toxicity (ratio of toxicity and viability): BxPC3, NEN 1.2 μM, FCCP 2.5 μM, 2-DG 100 mM, Domp, Imi, Desi, Ami 30 μM, Clomi 20 μM
# Experimental: (§1) HCT116, BxPC3 and U87 cell lines were maintained in Dulbecco's modified Eagle's medium (DMEM) (Gibco) supplemented with 10% fetal bovine serum (FBS; Millipore) and Penicilin/Streptomycine (Life Tehnologies), and cultured at 37° C., 5% CO2 and 95 humidity. For spheroid formation, 10000 cells were plated in ultra-low attachment plates (Fisher Scientific), centrifuged at 850 G for 10 min and incubated for 3 days until treatment, with medium change every 3 days.
# (§2) To determine drug induced toxicity in spheroid cultures, the Promega CellToXGreen and RealTime-Glo™ MT Cell Viability kits were used according to the manufacturers protocols. Briefly, Toxicity and viability dyes were mixed with cell culture medium and added prior to drug treatment. Fluorescence and luminescence were measured over the course of 3 days on a Thermo Fisher Varioskan Lux plate reader.
# (§3) For Caspase 3/7 activity and general cytotoxicity in 2D cell culture the Apo One Homogenous Caspase-3/7 Assay and Multitox Fluor assays were employed respectively, according to the manufacturers protocol. Cells were seeded in 96-wells one day prior to treatment and incubated 24-48 h before assaying.
# HCT116 cells [3] = test: Cell death / ratio of toxicity and viability in HCT116 (monolayer and spheroids); assay type: cell-based; conditions: for attenuation of cell death induced by NEN drug combinations: HCT116 monolayer or spheroids, ISRIB 1 μM or Cyclodextrin in medium; for cell death / toxicity (ratio of toxicity and viability): HCT116, 2D or 3D spheroids, NEN 1.2 μM, FCCP 2.5 μM, 2-DG 100 mM, Domp, Imi, Desi, Ami 30 μM, Clomi 20 μM
# Experimental: as §1, §2, §3
# UPP1 = UPP1 expression (immunoblot, qPCR) in HCT116; assay type: cell-based; conditions: ISRIB 1 μM with NEN 1.2 μM + Domperidone 30 μM
# Experimental: Cells were lysed at 4° C. in 100 μl of RIPA buffer (Sigma-Aldrich) containing protease (Roche 11697498001) and phosphatase (Roche 04906837001) inhibitors, and sonicated. Cell extracts were centrifuged 14000×RPM for 5 min 4° C. and the supernatant collected to protein concentration determination with BCA protein assay (Pierce 23225). 10-20 μg of total protein were subjected to SDS-PAGE electrophoresis, and after transfer, membranes were blocked (1 h) and incubated overnight at 4° C. with primary antibodies. After secondary antibody incubation for 1 h at room temperature, signals were visualized by Chemidoc Image System (BioRad) and ImageLab software.
# RNA was isolated using the Qiagen RNAesay kit following the manufacturers protocol and reverse transcribed using the Quantitect reverse transcription kit (Qiagen). cDNA was amplified using the PowerUp SYBRGreen mastermix (LifeTechnologies), the following primers and an Applied Biosystems Quantstudio 6 cycler. RNA expression data were normalized to the level of beta-actin expression.
# U87 cells = test: Cell death / ratio of toxicity and viability in U87 (spheroids); assay type: cell-based; conditions: for attenuation of cell death induced by NEN drug combinations: U87 spheroids, ISRIB 1 μM or Cyclodextrin 0.75%; for cell death / toxicity (ratio of toxicity and viability): U87, NEN 1.2 μM, FCCP 2.5 μM, 2-DG 100 mM, Domp, Imi, Desi, Ami 30 μM, Clomi 20 μM
# Experimental: as §1, §2, §3
# [4] = compared with its analogue Trimipramine; cited from earlier work
# [5] = tested on: glioblastoma and small-cell lung cancer (SCLC); conditions: cited from earlier work
# HCT116 cells [6] = test: Caspase 3/7 activity in HCT116; assay type: cell-based; conditions: HCT116, 1% serum, NEN 1.2 μM, 18 h
# From the text: For Caspase 3/7 activity and general cytotoxicity in 2D cell culture the Apo One Homogenous Caspase-3/7 Assay and Multitox Fluor assays were employed respectively, according to the manufacturers protocol. […]
# B42 organoids = test: Paclitaxel sensitization in B42 organoids; assay type: cell-based, human; conditions: triple combination with NEN and TCAs vs Paclitaxel alone
# Experimental: (§4) Primary patient-derived PDAC (Pancreatic ductal adenocarcinoma) three-dimensional (3D) organoids were generated from primary resected human PDAC surgical specimen according to the “Tuveson protocol” described in (Tiriac et al., 2018) and in the methods and extended methods sections of a publication by the group of Hans Clevers (Driehuis et al., 2019). Generation and culturing of primary-dispersed human PDAC cells was performed as recently described (Biederstadt et al., 2020). Written informed consent from the patients for research purposes was obtained prior to the investigation.
# as §2
# (§5) To investigate the efficacy of targeting the described metabolic stress response in a more heterogeneous cancer cell population, which better reflect the tumor biology, cultures of primary tumor-derived organoids from two patients with pancreatic cancer have been used. Organoids were seeded at a density of 1000 cells per well and let grow for 7 days prior to treatment.
# PDO-48 organoids = test: Paclitaxel sensitization in PDO-48 organoids; assay type: cell-based, human; conditions: triple combination with NEN and TCAs vs Paclitaxel alone
# Experimental: as §4, §2, §5
compound,measurement,setting,value
CNCCCN1c2ccccc2CCc2ccccc21 [Desipramine],hit in screen (cell death in NEN co-treated but not vehicle treated cells),HCT116 cells [1],represented with several compounds in both screens
CN(C)CCCN1c2ccccc2CCc2ccc(Cl)cc21 [Clomipramine],hit in screen (cell death in NEN co-treated but not vehicle treated cells),HCT116 cells [1],represented with several compounds in both screens
O=C(Nc1ccc([N+](=O)[O-])cc1Cl)c1cc(Cl)ccc1O [niclosamide],anti-tumor efficacy,[2],anti-tumor efficacy in a variety of preclinical tumor rodent models; also recorded: only minor therapeutic efficacy
O=C(COc1ccc(Cl)cc1)NC1CCC(NC(=O)COc2ccc(Cl)cc2)CC1 (centres unmarked) [ISRIB],"effect on drug-induced CHOP, Gadd34 and ATF4 expression","ATF4, CHOP and Gadd34; ISRIB 1 μM with NEN 1.2 μM + Domperidone 30 μM","prevented the induction of CHOP and of its target gene Gadd34, but did not decrease ATF4 expression significantly"
same,attenuation of cell death induced by NEN drug combinations,"BxPC3 cells; BxPC3 monolayer, 48 h",attenuated cell death induction
same,attenuation of cell death induced by NEN drug combinations,HCT116 cells [3],attenuated cell death induction
same,effect on drug-induced UPP1 upregulation,UPP1,prevented the drug-induced UPP1 upregulation
same,attenuation of cell death induced by NEN drug combinations,U87 cells,attenuated cell death induction
CN(C)CCCN1c2ccccc2CCc2ccccc21 [Imipramine],water solubility,[4],higher water solubility
same,efficacy in preclinical mouse models,[5],proven efficacy against glioblastoma and small-cell lung cancer (SCLC) in preclinical mouse models
Cyclodextrin [CD],attenuation of cell death induced by NEN drug combinations,HCT116 cells [3],CD concentration-dependent suppression of cell death
same,attenuation of cell death induced by NEN drug combinations,U87 cells,partially prevented cell death induction
O=c1[nH]c2ccccc2n1CCCN1CCC(n2c(=O)[nH]c3cc(Cl)ccc32)CC1 [Domperidone],"ISR marker gene expression (ATF4, CHOP, Gadd34 mRNA)","ATF4, CHOP and Gadd34",modest increase in ISR marker gene expression
same,hit in screen (cell death in NEN co-treated but not vehicle treated cells),HCT116 cells [1],scored as hit in both screens; also recorded: one of the top hits in both screens
"O=CC[C@@H](O)[C@H](O)[C@H](O)CO [2-DG, 2-deoxyglucose]",cell death / toxicity (ratio of toxicity and viability),BxPC3 cells,but not 2-DG alone caused significant cell death
same,cell death / toxicity (ratio of toxicity and viability),HCT116 cells [3],but not 2-DG alone caused significant cell death
same,cell death / toxicity (ratio of toxicity and viability),U87 cells,but not 2-DG alone caused significant cell death
"NCCO.O=C(Nc1ccc([N+](=O)[O-])cc1Cl)c1cc(Cl)ccc1O [NEN, niclosamide ethanolamine]","ISR marker gene expression (ATF4, CHOP, Gadd34 mRNA)","ATF4, CHOP and Gadd34",modest increase in ISR marker gene expression
same,anti-tumor efficacy,[2],anti-tumor efficacy in a variety of preclinical tumor rodent models
same,cell death / toxicity (ratio of toxicity and viability),BxPC3 cells,did not cause significant toxicity
same,cell death (caspase activity) under low serum,HCT116 cells [6],caused significant cell death
same,cell death / toxicity (ratio of toxicity and viability),HCT116 cells [3],did not cause significant toxicity
same,cell death / toxicity (ratio of toxicity and viability),U87 cells,did not cause significant toxicity
CC(CN(C)C)CN1c2ccccc2CCc2ccccc21 (centres unmarked) [Trimipramine],hit in screen (cell death in NEN co-treated but not vehicle treated cells),HCT116 cells [1],represented with several compounds in both screens
"N#CC(C#N)=NNc1ccc(OC(F)(F)F)cc1 [FCCP, Carbonyl cyanide-p-trifluoromethoxyphenylhydrazone]",cell death / toxicity (ratio of toxicity and viability),BxPC3 cells,did not cause significant toxicity
same,cell death / toxicity (ratio of toxicity and viability),HCT116 cells [3],did not cause significant toxicity
same,cell death / toxicity (ratio of toxicity and viability),U87 cells,did not cause significant toxicity
CC(=O)O[C@H]1C(=O)[C@@]2(C)[C@H]([C@H](OC(=O)c3ccccc3)[C@]3(O)C[C@H](OC(=O)[C@H](O)[C@@H](NC(=O)c4ccccc4)c4ccccc4)C(C)=C1C3(C)C)[C@]1(OC(C)=O)CO[C@@H]1C[C@@H]2O [Paclitaxel],increase in effectiveness in inducing organoid cell death,B42 organoids,up to 100 times
same,increase in effectiveness in inducing organoid cell death,PDO-48 organoids,approximately ten
